Measured values: US20100196376A1, “METHOD FOR REDUCING ALLERGEN-INDUCED AIRWAY HYPERRESPONSIVENESS” (National Jewish Health, priority 2001, published 2010)

What was measured:
Assay type in all cases: in vivo, mouse (BALB/c)
[1] = tested on: ovalbumin-sensitized and challenged mice (airway hyperresponsiveness to methacholine); experiment: Airway function: change in lung resistance (RL) and dynamic compliance (Cdyn) after aerosolized methacholine, ovalbumin-sensitized and challenged mice
Method: (§1) Mice (8/group/experiment) were sensitized by intraperitoneal injection of 20 μg of ovalbumin (Grade V, Sigma) emulsified in 2.25 mg alum (Alum® Inject; Pierce, Rockford, Ill.) in a total volume of 100 μl on days 0 and 14. On days 28, 29 and 30, mice were challenged via the airways by a 20-minute inhalation exposure to aerosols of ovalbumin (1% in saline) obtained from a DeVilbiss ultrasonic nebulizer (particle size 1-5 μm). Age-matched, control animal groups (8/group/experiment) consisted of mice injected with alum alone (non-sensitized) and exposed either to aerosols of saline or to aerosolized ovalbumin, and mice sensitized to ovalbumin but subsequently exposed to aerosols of saline.
Briefly, mice were sensitized and challenged to ovalbumin as described in Example 1. Airway function was assessed in vivo in anesthetized, mechanically ventilated mice as previously described (see, for example, Takeda et al., 1997, J. Exp. Med. 186, 449-454) by measuring changes in lung resistance (RL) and dynamic compliance (Cdyn) in response to intratracheal challenge with aerosolized methacholine at doses of 1.56, 3.125, 6.25 and 12.5 mg/ml in saline. Baseline values were recorded from data obtained after intra-tracheal challenge with aerosolized saline. The data are presented in percent of change from baseline RL, and Cdyn.

[2] = tested on: ovalbumin-sensitized and challenged mice (BAL eosinophils); experiment: Bronchoalveolar lavage (BAL) differential cell counts, ovalbumin-sensitized and challenged mice; conditions: i.p. 2 h prior to each allergen challenge; CGRP 20 μg/kg, CGRP fragment 8-37 100 μg/kg (FIG. 3C)
Method: as §1
Following assessment of airway function, the lungs were lavaged once with 1 ml of sterile Hank's balanced salt solution (HBSS) pre-warmed at 37° C. The recovered BAL fluids were placed in Eppendorf tubes and were centrifuged at 4° C. for 5 min at 1,500 rpm. The obtained cell pellets were resuspended in 200 μl of sterile phosphate-buffered saline (PBS) and total cell numbers were determined from counting of crystal violet-stained aliquots using a hemacytometer. Differential cell counts were determined from cytospin preparations stained with Leukostat (Fisher Diagnostics, Pittsburgh, Pa.). At least 200 cells were counted from each slide in a blinded fashion.

[3] = tested on: ovalbumin-sensitized and challenged mice (tissue infiltrating eosinophils); experiment: Tissue infiltrating eosinophils, MBP immunoperoxidase and morphometric analysis of lung sections; conditions: i.p. 2 h prior to each allergen challenge; CGRP 20 μg/kg, CGRP fragment 8-37 100 μg/kg (FIG. 3D)
Method: For histology and immunohistochemistry, the lungs of the mice were inflated and fixed with 4% paraformaldehyde in PBS for 24 h at 4° C. followed by processing into paraffin. Five μm-thick sections were cut from the paraffin blocks, deparaffinized and stained with hematoxylin and eosin for routine histology.
The pan neuronal marker PGP9.5, CGRP and tissue eosinophils were detected by immunoperoxidase. Unless otherwise stated, all incubations were carried out at room temperature. All washes were performed with TBS (50 mM TRIS-buffered saline pH 7.6) 3 times for 5 min. Endogenous peroxidase was blocked by incubation of tissue sections with H2O2 (0.3% in methanol) for 30 minutes. […]
For tissue eosinophils, the sections were pretreated for 5 min with 0.01% trypsin in TBS to retrieve antigens. […] CGRP was detected with a polyclonal rabbit anti-CGRP antibody (Biogenesis) diluted 1:200. […]
The data of immunohistochemistry were quantitatively analyzed (morphometric analysis) on a G-3 Macintosh computer using the National Institutes of Health (NIH) Scion Image analysis software. […]
The number of tissue infiltrating eosinophils was determined by counting all MBP-positive cells present in the airway wall including the adventitia. When eosinophils were present in tissue areas connecting blood vessels to adjacent airways only 50% of these cells were counted for these airways. […]

Substance: CGRP(8-37): highly selective CGRP receptor antagonist, human synthetic CGRP (fragment 8-37), from Sigma
- Inhibitory effect of CGRP on AHR after pretreatment with the receptor antagonist ([1]; CGRP i.p. after allergen challenge period, animals pretreated with CGRP(8-37) (FIGS. 4A, 4B)): totally neutralized
- AHR in sensitized mice ([1]; administration after the period of allergen challenge, CGRP i.p. at 2 h prior to assessment of airway function (FIGS. 4A, 4B)): did not alter
- Extent / development of AHR ([1]; i.p. 2 h prior to each allergen challenge, CGRP 20 μg/kg, CGRP fragment 8-37 100 μg/kg (FIGS. 3A, 3B)): did not produce any significant change
- Numbers of BAL eosinophils [2]: no significant effect
- Numbers of tissue infiltrating eosinophils [3]: no significant effect
